# Experimental data: US20150283152A1, “Levonorgestrel-Only-Composition For Optimized Oral Contraception With Defined Levonorgestrel Content, Dosage Regimen And Pharmaceutical Preparation” (NAARI AG, priority 2012, published 2015)
# Columns and labels:
# [1] = Martinez F et al. 2012; cited from earlier work
# Luteinizing Hormone (LH) = experiment: Serum levels of Luteinizing Hormone in male castrated rats (radioimmunoassay); format: in vivo, rat; conditions: gonadectomized control 127.0 ± 11.0, p < 0.05
# New Zealand-rabbits = experiment: Pre-ovulatory repeated oral levonorgestrel, rate of fertilized eggs in rabbits (ovulation induced by PMSG/hCG); format: in vivo, rabbit; conditions: for % fertilized (cleaved) eggs: control 90.6
# Source text: On the last day of LNG-administration, the ovulation was “forced” by intravenous (i.v.) injection of human chorionic gonadotropin (hCG). […] [table]
# [2] = system: immature male Wistar-rats; experiment: Weight of gonads in immature male rats (antigonadotrophic effect); format: in vivo, rat; conditions: final control 873.5 ± 62.5, p < 0.05
# Source text: The influence of levonorgestrel on the secretion of gonadotrophins from the pituitary can be estimated by recording the dose-effect relationships in reducing the weight of the gonads of immature male rats. [table]
# women = conditions: without estrogen; cited from earlier work
# [3] = system: female paired Wistar-rats; experiment: Post-ovulatory subcutaneous levonorgestrel, fertility of female paired rats; format: in vivo, rat
# Description: Whereas 20 mg/kg bodyweight (b.w.). […] [table]
# [4] = total dosage 0.35 mg/animal p.o. over 3 days
# [5] = total dosage 1.75 mg/animal p.o. over 3 days
# [6] = s.c. days 1-4 p.i., total dose 0.2 mg/animal/4 days
# [7] = s.c. days 1-4 p.i., total dose 2.0 mg/animal/4 days
# [8] = s.c. once Day 1 p.i., total dose 4.0 mg/animal
smiles,measurement,setting,value
C#C[C@]1(O)CC[C@H]2[C@@H]3CCC4=CC(=O)CC[C@@H]4[C@H]3CC[C@@]21CC [levonorgestrel],risk of venous thromboembolism (VTE),[1],currently the safest progestin
same,Luteinizing Hormone ng/mL serum,Luteinizing Hormone (LH); total dose 0.14 mg/animal/14 d s.c.,68.4 ± 15.4 ng/mL serum
same,Luteinizing Hormone ng/mL serum,Luteinizing Hormone (LH); total dose 1.40 mg/animal/14 d s.c.,2.2 ± 0.3 ng/mL serum
same,Total no. of eggs vs. total no. of fertilized (cleaved) eggs,New Zealand-rabbits; [4],92/78
same,% fertilized (cleaved) eggs,New Zealand-rabbits; [4],84.8%
same,Total no. of eggs vs. total no. of fertilized (cleaved) eggs,New Zealand-rabbits; [5],81/49
same,% fertilized (cleaved) eggs,New Zealand-rabbits; [5],60.5%
same,% fertilized (cleaved) eggs,New Zealand-rabbits; total dosage 5.25 mg/animal p.o. over 3 days,54.5%
same,Gonadal weight/mg Mean ± (S.E.M.),[2]; total dose 0.14 mg/animal over 14 d s.c.,579.7 ± 44.7 mg
same,Gonadal weight/mg Mean ± (S.E.M.),[2]; total dose 0.42 mg/animal over 14 d s.c.,385.7 ± 74.3 mg
same,Gonadal weight/mg Mean ± (S.E.M.),[2]; total dose 1.40 mg/animal over 14 d s.c.,180.8 ± 105.5 mg
same,daily dosage leading to non-acceptable bleeding irregularities,women,over 0.125 mg
same,No. of treated animals vs. no. of intact pregnancies,[3]; [6],10/9
same,Pregnancy inhibition (%),[3]; [6],10%
same,No. of treated animals vs. no. of intact pregnancies,[3]; [7],10/0
same,Pregnancy inhibition (%),[3]; [7],100%
same,No. of treated animals vs. no. of intact pregnancies,[3]; [8],12/12
same,Pregnancy inhibition (%),[3]; [8],0%
